A value given as a limit tells only on which side of the number the result lay.

The subject of data set [1] is B. caballi. Briefly: Growth inhibitory fluorescence assay in vitro, B. caballi. Format: cell-based, Babesia caballi. The method, then: (§1) Texas strain of B. bovis and Argentina strain of B. bigemina were grown using bovine red blood cells (RBCs, collected from cattle farm of Obihiro University of Agriculture and Veterinary Medicine and stored at 4°C) in medium 199 (M199; Sigma-Aldrich, Tokyo, Japan) supplemented with 40% bovine serum, while RPMI 1640 medium (Sigma-Aldrich, Tokyo, Japan) was used for B. divergens (German strain) cultivation. The United States Department of Agriculture (USDA) strain of T. equi was grown in equine RBCs (collected from horse farm of Obihiro University of Agriculture and Veterinary Medicine and stored at 4°C) in M199 supplemented with 40% equine serum, and hypoxanthine (MP Biomedicals, Santa Ana, CA, USA) at a final concentration of 13.6 μg/ml was used as a vital supplement, while GIT medium was used for B. caballi (USDA strain) cultivation. Sixty μg/ml of streptomycin, 0.15 μg/ml of amphotericin B, and 60 U/ml of penicillin G (Sigma-Aldrich, Tokyo, Japan) were added to all media to prevent fungal and bacterial contamination. All parasite cultures were maintained for a long time in a microaerophilic stationary-phase culture system.
(§2) The inhibition assay was conducted according to the previously described protocol. Briefly, different concentrations of CRY, DA, CF, and AQ were added in triplicate in 96-well plates with 1% parasitemia and 2.5% HCT for B. bovis and B. bigemina and 5% HCT for B. divergens, B. caballi, and T. equi. The plates were incubated in a humidified incubator with 5% CO2, 5% O2, and 90% N2 for 96 h without changing the media. After 96 h, 100 μl of lysis buffer containing 2 × SG1 was directly added to each well and the plates were then wrapped in aluminum foil for protection from direct light and incubated for 6 h at room temperature. Afterward, the fluorescence was measured using a fluorescence spectrophotometer (Fluoroskan Ascent, Thermo Fisher Scientific, USA) at 485 nm excitation and 518 nm emission wavelengths. The relative fluorescence value was set to percentages after subtracting the mean values of the negative control. The experiment was repeated thrice.
(§3) The IC50 values of CRY, DA, CF, and AQ were determined using the nonlinear regression curve fit in GraphPad Prism (GraphPad Software Inc., San Diego, CA, USA). Combination index (CI) values for the drug combination were calculated using CompuSyn software, and the degree of synergism was determined as the weighted average of CI values using a formula [(1 x IC50) + (2 x IC75) + (3 x IC90) + (4 x IC95)]/10 [30]. The differences in parasitemia and hematology profiles in the B. microti–infected mice were analyzed using an independent Student’s t-test and one-way ANOVA test using GraphPad Prism version 5.0 for Windows (GraphPad Software Inc., San Diego, CA, USA). A P-value < 0.05 was considered statistically significant.

Data set [2] concerns T. equi. Briefly: Growth inhibitory fluorescence assay in vitro, T. equi. Format: cell-based, Theileria equi. The method, then: as §1, §2, §3
For data set [3], the system named is B. divergens. Briefly: Growth inhibitory fluorescence assay in vitro, B. divergens. Format: cell-based, Babesia divergens. As to the method: as §1, §2, §3
Data set [4] concerns B. bigemina. The experiment in a line: Growth inhibitory fluorescence assay in vitro, B. bigemina. Format: cell-based, Babesia bigemina. As to the method:
as §1, §2, §3

Data set [5] concerns human foreskin fibroblast (HFF) cell line. The experiment in a line: cells. Format: cell-based. The following applies: for EC50: cell viability, HFF, 24 h, CCK-8. The method, then:
(§4) Madin–Darby bovine kidney (MDBK) (ECACC), mouse embryonic fibroblast (NIH/3T3 ATCC CRL-1658) and Human foreskin fibroblast (HFF HFF-1 ATCC SCRC-1041) cell lines were recovered from -80°C stock and cultured continuously in our laboratory at 37°C in a humidified incubator with 5% CO2. In 75 cm^2 culture flasks, NIH/3T3 and HFF cell lines were maintained with Dulbecco’s Modified Eagle’s Medium (DMEM; Gibco, Grand Island, NY, USA), while the MDBK cell line was maintained with Minimum Essential Medium Eagle (MEM; Gibco). Ten percent fetal bovine serum, 1% glutamine, and 0.5% penicillin/streptomycin (Gibco) were added to all media and the cells were stained with 4, 6-diamidino-2-phenylindole dihydrochloride (DAPI; Sigma-Aldrich, St. Louis, MO, USA) to ensure that they were free from mycoplasma contamination. Afterward, the cells were washing twice with Dulbecco’s phosphate-buffered saline and TrypLE Express (Gibco) was used for cell detachment from the culture flask. Finally, Neubauer improved C-Chip (NanoEntek Inc., Seoul, Korea) was used for counting the viable cells after staining with 0.4% trypan blue solution.
(§5) The cytotoxicity assay was performed in accordance with the previously described protocol. Briefly, the assay was carried out using 96-well plates at 37 °C in a humidified incubator with 5% CO2, 100 μl of cells at a density of 5 x 10^4 cells/ml was seeded per well and allowed to attach to the plate for 24 h. Ten microliters of twofold drug dilutions was added to each well to a final concentration of 0.781 to 100 μM in triplicate and incubated for another 24 h. Ten μl of Cell Counting Kits-8 (CCK-8; Dojindo, Japan) was added to each well and incubated for another 3 h, and the absorbance was measured at 450 nm using a microplate reader.

Data set [6] deals with mouse embryonic fibroblast (NIH/3T3) cell line. Briefly: cells. Format: cell-based. The following applies: for EC50: cell viability, NIH/3T3, 24 h, CCK-8. As to the method: as §4, §5
Data set [7] relates to Madin–Darby bovine kidney (MDBK) cell line. Briefly: cells. Format: cell-based. To be noted: for EC50: MDBK, 24 h, cell viability, CCK-8. As to the method:
as §4, §5

Data set [8] concerns B. bovis. Briefly: Growth inhibitory fluorescence assay in vitro, B. bovis. Format: cell-based, Babesia bovis. As to the method:
as §1, §2, §3

Data set [9] has as its system B. microti small-subunit rRNA (ss-rRNA) gene. The experiment in a line: Nested PCR detection of B. microti DNA in blood of treated mice. Format: in vivo, Babesia microti. To be noted: day 49, 25 mg/kg DA. The method, then:
(§6) The promising effect of CRY in vitro encouraged us to evaluate its in vivo effects against B. microti in mice. The assay was conducted in accordance with the previously described protocol. In two separate trials, 35 female 8-week-old BALB/c mice, housed under a pathogen-free environment with controlled humidity, temperature (22°C) and a 12 h light/ dark cycle were caged in seven groups, each group consisting of five mice. Six groups were i.p. injected with 0.5 ml of inoculum (1×10^7 B. microti iRBCs), while the seventh group was left uninfected and untreated to act as a negative control. When the average parasitemia in all infected mice reached approximately 1%, the 5-day drug treatment was initiated. The first and second groups were i.p. injected with 25 mg/kg body weight (BW) of DA and 5 mg/kg BW of CRY, respectively. The third group received 20 mg/kg BW of AQ orally, while the fourth and fifth groups were administered a combination of 2.5 mg/kg BW CRY + 12.5 mg/kg BW DA and 2.5 mg/kg BW CRY + 10 mg/kg AQ via a route similar to that of the single-drug treatment, respectively. The sixth group received 5% DMSO in physiological saline i.p. as a positive control. Parasitemia and hematology profiles (RBCs, hemoglobin (HGB), and HCT) were monitored every 2 and 4 days by microscopic examination and hematology analyzer (Celltac α MEK-6450, Nihon Kohden Corporation, Tokyo, Japan), respectively. On day 49, all mice were euthanized using an anesthesia system containing isoflurane and the blood was collected by cardiac puncture for PCR detection of the parasites.
The nested PCR (nPCR) that targeted the B. microti small-subunit rRNA (ss-rRNA) gene was performed in accordance with the previously described protocol and the genomic DNA was extracted from blood samples collected from all mice groups on day 49 post-infection (p.i.) using a QIAamp DNA Blood Mini Kit (Qiagen, Tokyo, Japan). PCR cycling conditions were performed as previously described and the bands with an expected size of 154 bp were considered positive.

The test system of data set [10] is B. microti. Briefly: Chemotherapeutic effect against B. microti in mice (parasitemia). Format: in vivo, Babesia microti. The following applies: BALB/c mice, 25 mg/kg DA i.p. The method, then:
Rodent B. microti (Munich strain) was recovered from -80°C stock and injected intraperitoneally (i.p.) in two 8-week-old female BALB/c mice purchased from CLEA Japan (Clea Japan, Tokyo, Japan). The mice were euthanized using an anesthesia system containing isoflurane after parasitemia reached approximately 30% and the blood was collected by cardiac puncture to conduct the in vivo studies.
as §6

As for `CC(C)/N=c1\cc2n(-c3ccc(Cl)cc3)c3ccccc3nc-2cc1Nc1ccc(Cl)cc1` [CF, clofazimine], the “Selective index HFF” value is listed as “˃ 12.6” in data set [1] (EC50 HFF / IC50 B. caballi); “˃ 34.7” in [2] (EC50 HFF / IC50 T. equi); “˃ 7.2” in data set [3] (EC50 HFF / IC50 B. divergens); “˃ 17.5” in data set [4] (EC50 HFF / IC50 B. bigemina); “˃ 12.1” in data set [8] (EC50 HFF / IC50 B. bovis). Also, the “Selective index MDBK” value in [1] (EC50 MDBK / IC50 B. caballi) was determined as 4.4; in [2] (EC50 MDBK / IC50 T. equi) it was 12.1; in data set [3] (EC50 MDBK / IC50 B. divergens), 2.5; in data set [4] (EC50 MDBK / IC50 B. bigemina) it was 6.1; in [8] (EC50 MDBK / IC50 B. bovis), 4.2. Besides, the “Selective index NIH/3T3” value in data set [1] (EC50 NIH/3T3 / IC50 B. caballi) is “˃ 12.6”; in data set [2] (EC50 NIH/3T3 / IC50 T. equi), “˃ 34.7”; in [3] (EC50 NIH/3T3 / IC50 B. divergens), “˃ 7.2”; in data set [4] (EC50 NIH/3T3 / IC50 B. bigemina), “˃ 17.5”; in data set [8] (EC50 NIH/3T3 / IC50 B. bovis) it was “˃ 12.1”. For the same molecule, the EC50 is above 100 µM in [5] (Homo sapiens); above 100 µM in data set [6] (Mus musculus, NIH3T3); 34 ± 3.4 µM in [7] (Bos taurus); 34.7 ± 3.4 µM in data set [7].
In the case of `CC(=O)NCC(=O)O.CC(=O)NCC(=O)O.N=C(N)c1ccc(N=NNc2ccc(C(=N)N)cc2)cc1` [DA, diminazene aceturate], the half-inhibitory concentration (IC50) in [1] (B. caballi in vitro culture, fluorescence assay, 96 h) amounted to 22 ± 0.0002 nM; in [2] (T. equi in vitro culture, fluorescence assay, 96 h) it was 710 ± 0.05 nM; in [3] (B. divergens in vitro culture, fluorescence assay, 96 h, read-out: IC50), 430 ± 0.05 nM; in data set [4] (B. bigemina in vitro culture, fluorescence assay, 96 h) it was 680 ± 0.09 nM; in [8] (B. bovis in vitro culture, fluorescence assay, 96 h), 350 ± 0.06 nM. Besides, in [9], the “parasite DNA in blood (nPCR)” value is listed as “not detected”. Besides, the “inhibition of cell line at 100 μM” value in [5], in [6] and in [7] was “did not show any inhibition” each time. Besides, the EC50 in [5], in data set [6] and in [7] was above 100 µM each time. The “day p.i. on which parasitemia was undetectable by microscopy” value in data set [10] was determined as 16 days. For the same molecule, the peak parasitemia level in [10] (5 days, day 10) is recorded as 8.5%.

The record behind these values is PMC7451656, “In vitro and in vivo growth inhibitory activities of cryptolepine hydrate against several Babesia species and Theileria equi” (PLoS Neglected Tropical Diseases, 2020).
